Where two headings read alike, the source gives them in different places. Blank lines part the entries; values can stand above or below the compound they belong to.
How the values were obtained:
hTRPC5 [1] = biological target: T1, hTRPC5 (Homo sapiens, UniProt Q9UL62); assay: TRPC5 agonist activity assay (FLIPR calcium fluorescence); assay type: cell-based; details: Table 2, agonist activity on TRPC5 channels
T1 construct: expressed in transfected cells; host or cells: HEK-293
T1 sequence (Q9UL62 1-973): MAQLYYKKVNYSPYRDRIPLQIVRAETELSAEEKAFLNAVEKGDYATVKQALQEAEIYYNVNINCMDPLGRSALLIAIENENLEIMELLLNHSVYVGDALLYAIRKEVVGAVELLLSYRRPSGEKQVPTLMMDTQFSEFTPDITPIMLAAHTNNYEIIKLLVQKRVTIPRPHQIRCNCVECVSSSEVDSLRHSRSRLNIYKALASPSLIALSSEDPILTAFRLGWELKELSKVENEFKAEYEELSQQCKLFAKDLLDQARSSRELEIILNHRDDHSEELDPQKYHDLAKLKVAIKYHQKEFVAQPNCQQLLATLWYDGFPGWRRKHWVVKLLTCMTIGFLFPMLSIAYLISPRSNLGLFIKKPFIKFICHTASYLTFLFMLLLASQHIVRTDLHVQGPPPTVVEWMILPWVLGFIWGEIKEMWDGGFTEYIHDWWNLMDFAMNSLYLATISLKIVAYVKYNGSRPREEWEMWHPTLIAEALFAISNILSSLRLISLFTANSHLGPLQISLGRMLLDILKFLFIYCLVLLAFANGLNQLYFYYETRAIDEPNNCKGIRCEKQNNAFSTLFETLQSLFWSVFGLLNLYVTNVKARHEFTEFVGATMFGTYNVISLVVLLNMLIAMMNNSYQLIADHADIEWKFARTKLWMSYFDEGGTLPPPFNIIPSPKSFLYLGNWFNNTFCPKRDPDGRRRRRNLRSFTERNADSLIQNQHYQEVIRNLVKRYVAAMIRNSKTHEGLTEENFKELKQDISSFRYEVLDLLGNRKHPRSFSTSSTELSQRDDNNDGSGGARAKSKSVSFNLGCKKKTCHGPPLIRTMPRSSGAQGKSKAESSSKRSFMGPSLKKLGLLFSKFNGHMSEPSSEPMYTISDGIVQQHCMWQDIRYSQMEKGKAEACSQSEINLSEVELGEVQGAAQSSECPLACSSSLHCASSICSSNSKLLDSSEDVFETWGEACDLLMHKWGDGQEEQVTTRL
Method: HEK-293 cells expressing hTRPC5 were seeded into PDL-coated black-walled 96-well plates, with 2×10^4 cells per well. After 8 hours of culture, the original culture medium was discarded, and 60 µL of 4 µM Fluo-4/AM dye was added immediately. The cells were incubated at 37 °C for 60 minutes, and then rinsed with calcium flow detection buffer 5 times. The cell plates were placed in FLIPR®TETRA (Molecular Devices, Sunnyvale, CA, USA) preheated at 30 °C, excited at a wavelength of 488 nm, and the fluorescence signals were continuously recorded in the range of 515-535 nm with a sampling frequency of 1 s. After recording for 360 seconds, solvent control and test compounds were added, and the fluorescence signal was collected for another 600 seconds. The fluorescence signal of the trajectory diagram is represented by F/F0, wherein F is the fluorescence signal at different time points, and F0 is the basic fluorescence signal, that is, the average value of the fluorescence signal at the first 10 time points. The dose-effect diagram first took F/F0 =1 as the baseline. The area under the curve of the change in fluorescence intensity after adding test compound was calculated. IC50 value was calculated using log[agonist] vs. response - Variable slope, taking into account the area under the curve and the log value of the concentration of the compound.

hTRPC5 [2] = biological target: T1, hTRPC5; assay: TRPC5 inhibitory activity assay (FLIPR calcium fluorescence, Englerin A stimulation); assay type: cell-based
Method: HEK-293 cells expressing hTRPC3, hTRPC4 or hTRPC5 were seeded into black-bottomed 96-well plates coated with poly-lysine (PDL), with 2×10^4 cells per well. After 8 h of culture, the original culture medium was discarded, and 60 µL of Fluo-4/AM dye with a final concentration of 4 µM was added. The plates were incubated at 37 °C for 60 min, and then rinsed five times with calcium flow detection buffer. […] Then, the agonist Englerin A (EA) (MedChemExpress, Shanghai, China, final concentration of 0.3nM) was added, and the fluorescence signal was collected for 600 seconds. The fluorescence signal of the trajectory diagram is represented by F/F0, wherein F is the fluorescence signal at different time points, and F0 is the basic fluorescence signal, that is, the average value of the fluorescence signal at the first 10 time points. […] The area under the curve of the change in fluorescence intensity after adding EA was calculated. IC50 value was calculated using log[Inhibitor] vs. response - Variable slope, taking into account the area under the curve and the log value of the concentration of the compound.

hERG channel = biological target: T2, hERG channel (Homo sapiens, UniProt Q12809); assay: hERG channel inhibition assay (Qpatch whole-cell recording, CHO cells expressing hERG); assay type: cell-based; details: Table 3; highest test concentration 40 µM; read-out: inhibitory activity IC50 hERG
T2 construct: expressed in transfected cells; host or cells: CHO
Method: (§1) CHO cells expressing hERG protein were cultured in 175cm^2 culture flasks. When the cell density grew to 60-80%, the culture medium was removed, and the cells were washed with 7mL PBS, and then 3mL Detachin was added for digestion. After digestion was complete, 7mL culture medium was added for neutralization, and then centrifuged, the supernatant was aspirated, and 5mL culture medium was added for resuspending to ensure that the cell density was 2-5×10^6/mL.
(§2) The single-cell high-impedance sealing and whole-cell pattern formation process were all automatically completed by the Qpatch instrument. After obtaining the whole-cell recording mode, the cell was clamped at -80 mV. […] This voltage stimulus was applied every 15 seconds. After recording for 2 minutes, the extracellular solution was recorded for 2 minutes, and then the drug administration process began. The compound concentration started from the lowest test concentration, and each test concentration was given for 2 minutes. After all concentrations were given continuously, the positive control compound 10 µM Cisapride was given. At least 3 cells (n≥3) were tested for each concentration.
(§3) The stock solution of compound was diluted with extracellular solution, 5 µL of 20 mM compound stock solution was added to 2495 µL of extracellular solution, 500 times diluted to 40 µM, and then 3 times serial dilution was performed in the extracellular solution containing 0.2% DMSO to obtain the final concentration to be tested.
(§4) (5) Data analysis: The experimental data were analyzed by XLFit software.

[3] = biological target: T3, hERG channel (relative to TRPC5) (Homo sapiens, UniProt Q12809); assay: as above; assay type: cell-based; details: human, CHO cells expressing hERG; ratio of IC50 values
T3 construct: expressed in transfected cells; host or cells: CHO
Method: as §1, §2, §3, §4

[4] = Preliminary pharmacokinetic evaluation, plasma drug concentration after oral administration to mice; assay type: in vivo, ICR mice; details: oral 10 mg/kg, Mean ± SD, N = 3
Method: The test compound was prepared according to the following solvent: an aqueous solution of DMSO/Tween 80/0.5% (m/v) CMC-Na at a ratio of 2:2:96 (v/v/v), with a drug concentration of 1 mg/mL. Then, the test compound was gavaged to mice at a dosage of 10 mL/kg, with a dose of 10 mg/kg. Each compound was administered to 3 mice. At 1h and 4h after administration, about 50 µL of blood was collected from the orbital venous plexus of the mouse and placed in a centrifuge tube containing EDTA-K2 anticoagulant.

mice [5] = assay: Marble burial test (antianxiety); assay type: in vivo; details: before versus after administration (Figure 3)
Method: (§5) The drug to be tested was dissolved in DMSO: Tween 80: distilled water at a ratio of 2:2:96 (v/v/v), and then administered to mice by gavage at a volume of 10 mL/kg. […] The blank control group was only given 10 mL/kg of the above solvent.
The mouse marble burial test is a behavioral assay used for the screening of antianxiety drugs. It exploits the natural digging behavior of mice in environments such as burrows or escape tunnels and is sensitive to small changes in behavior caused by genetic manipulation, disease, or drug treatment.
A 5cm thick sawdust litter was laid in a 33 cm×24 cm×28 cm carton, and 4×5 black marbles (4 cm apart) with a total of 20 black marbles of 14mm in diameter were neatly placed on the litter. The mouse was put into the carton facing the corner for 30 minutes. After 30 minutes, the mouse was carefully taken out and the number of marbles buried by the mouse was counted. If more than 2/3 of the marble was buried, it was considered a whole marble. First, a blank experiment was conducted. Before the experiment, the mouse was taken to the experimental environment to adapt. After 1 hour, the experiment began. After the experiment, the mouse was returned to the cage and the number of marbles buried by the mouse was counted. On the second day, the mouse was taken to the experimental environment to adapt for 1 hour before the drug was administered. After the drug administration, the marble burying experiment was conducted for […]. After the experiment, the mouse was carefully taken out and returned to the cage to prevent the mouse from escaping violently and affecting the experimental results. After counting, the black marbles were taken out and wiped with alcohol, and the litter was turned over again to remove the smell of the previous mouse to prevent it from affecting the experiment of the next mouse. The marbles were neatly placed for the experiment of the next mouse.

mice [6] = assay: Tail suspension test (antidepression); assay type: in vivo; details: before versus after administration (Figure 4)
Method: as §5
The mouse tail suspension test (TST) is a widely used experimental method to evaluate the effectiveness of antidepressants and other psychotropic drugs. The principle of the test is to suspend a mouse by its tail and observe its behavior. The mouse will initially struggle to escape, but when it realizes that escape is impossible, it will eventually stop struggling and enter a state of immobility that indicates despair. This immobility behavior is used to measure depression-like states, and the severity of the condition is assessed by recording the duration of immobility.
The same mouse was subjected to the tail suspension test immediately after the marble burying test. A tail suspension test box was built using a black frosted acrylic board, 55 cm high, 15 cm long, and 11.5 cm wide. The three sides and top of the box were frosted blackboards, and one side was used for video recording. The mouse tail was wrapped with yellow tape 2 cm away from the tip of the tail, and the mouse was hung upside down in the middle of the top acrylic board. The tip of the mouse tail was about 3 cm away from the acrylic board, and the body was suspended and could not touch the surrounding board wall. The test time for each mouse lasted for 6 minutes, and the immobility time of the mouse during this time was counted. After the experiment, the mouse was returned to the cage, and the inside of the box and the table were wiped with alcohol to remove the smell of the previous mouse to prevent affecting the next mouse experiment. The criteria for immobility in the tail suspension test: stop struggling, no flexion or twisting of the body, no swinging of the hind limbs, and slight swinging of the forelimbs and head were also counted as immobility time.

[7] = Liver microsome stability test, mouse; assay type: in vitro ADME; details: Mouse liver microsomes
Text: Calculation of Intrinsic Clearance: Clint = (1000 × slope)/(P); [formula]

T3 sequence (Q12809 whole entry): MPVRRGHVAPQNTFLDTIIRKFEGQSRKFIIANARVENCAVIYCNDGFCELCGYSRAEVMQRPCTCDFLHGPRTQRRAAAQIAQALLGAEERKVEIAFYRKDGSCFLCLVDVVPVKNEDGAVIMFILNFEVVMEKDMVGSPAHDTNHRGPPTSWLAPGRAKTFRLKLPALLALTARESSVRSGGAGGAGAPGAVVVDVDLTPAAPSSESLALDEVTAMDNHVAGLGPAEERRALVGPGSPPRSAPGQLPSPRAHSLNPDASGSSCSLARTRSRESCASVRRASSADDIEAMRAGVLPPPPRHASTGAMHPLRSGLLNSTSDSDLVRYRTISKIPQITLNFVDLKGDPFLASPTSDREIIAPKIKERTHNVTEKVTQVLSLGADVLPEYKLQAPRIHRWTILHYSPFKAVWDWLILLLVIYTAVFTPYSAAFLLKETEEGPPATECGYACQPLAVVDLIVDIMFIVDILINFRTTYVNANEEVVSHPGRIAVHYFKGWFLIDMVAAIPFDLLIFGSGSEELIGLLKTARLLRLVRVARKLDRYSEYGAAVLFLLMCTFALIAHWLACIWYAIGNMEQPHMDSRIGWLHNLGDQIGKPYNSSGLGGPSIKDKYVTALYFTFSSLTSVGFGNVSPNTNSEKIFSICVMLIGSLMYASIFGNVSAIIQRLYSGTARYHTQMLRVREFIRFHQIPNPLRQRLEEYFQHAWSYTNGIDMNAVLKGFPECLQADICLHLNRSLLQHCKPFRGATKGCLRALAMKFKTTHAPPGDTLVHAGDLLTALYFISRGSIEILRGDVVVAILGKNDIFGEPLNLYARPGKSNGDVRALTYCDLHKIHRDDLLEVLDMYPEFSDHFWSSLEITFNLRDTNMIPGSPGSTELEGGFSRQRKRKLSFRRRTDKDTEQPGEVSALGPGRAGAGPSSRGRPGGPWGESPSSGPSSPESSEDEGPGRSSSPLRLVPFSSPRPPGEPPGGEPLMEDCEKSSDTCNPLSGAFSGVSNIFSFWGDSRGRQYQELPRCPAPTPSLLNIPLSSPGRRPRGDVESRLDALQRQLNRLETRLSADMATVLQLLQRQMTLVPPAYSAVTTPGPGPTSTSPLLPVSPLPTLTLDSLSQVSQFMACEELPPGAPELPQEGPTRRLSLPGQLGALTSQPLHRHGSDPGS
T2 sequence (Q12809 whole entry): as above

Structure (SMILES): CC(C)C1CCC(F)(c2nc3c(c(=O)n(CCCO)c(=O)n3C)n2Cc2ccc(Cl)cc2)CC1 (stereo not shown) [Example E31, 7-(4-chlorobenzyl)-8-(1-fluoro-4-isopropylcyclohexyl)-1-(3-hydroxypropyl)-3-methyl-3,7-dihydro-1H-purine-2,6-dione]
- EC50 (hTRPC5 [1]): 102 nM

Structure (SMILES): Cn1c(=O)n(CCCO)c(=O)c2c1nc(C1=CCC(F)(F)CC1)n2Cc1ccc(Cl)cc1 [Example E37, 7-(4-chlorobenzyl)-8-(4,4-difluorocyclohex-1-en-1-yl)-1-(3-hydroxypropyl)-3-methyl-3,7-dihydro-1H-purine-2,6-dione]
- EC50 (hTRPC5 [1]): 100 to 200 nM

Structure (SMILES): Cn1c(=O)n(CCCO)c(=O)c2c1nc(C1(F)CCC(F)(F)CC1)n2Cc1ccc(C(F)(F)F)cc1 [Example E60, 1-(3-hydroxypropyl)-3-methyl-8-(1,4,4-trifluorocyclohexyl)-7-(4-(trifluoromethyl)benzyl)-3,7-dihydro-1H-purine-2,6-dione]
- IC50 (hTRPC5 [2]; Table 1, TRPC5 channels, HEK-293 cells expressing hTRPC5, read-out: FLIPR IC50): 6.87 nM
- IC50 (hTRPC5 [2]; Table 3, read-out: inhibitory activity IC50 TRPC5): 6.9 nM
- IC50 (hERG channel): 13300 nM
- selectivity ratio at 2 min [3]: 1940
- concentration at 1 h ([4]; male, ICR, mouse, 1h): 1310 ± 45 ng/mL
- concentration at 4 h ([4]; male, ICR, mouse, 4h): 1180 ± 163 ng/mL

Structure (SMILES): CNCCC(Oc1ccc(C(F)(F)F)cc1)c1ccccc1 (stereo not shown) [Fluoxetine, reference compound]
- number of marbles buried by mice (mice [5]; oral 10 mg/kg): significantly reduced
- immobility time of mice (mice [6]; oral 10 mg/kg): significantly reduced

Structure (SMILES): Cn1c(=O)n(CCCO)c(=O)c2c1nc(Oc1cccc(Cl)c1)n2Cc1ccc(Cl)cc1 [HC-070, reference compound]
- Stability Evaluation [7]: Worse (MF%<30%, worse metabolic stability)
- MF % ([7]; metabolic bioavailability): 19.8%
- half-life ([7]; pH 7.4, 1µM compound, read-out: Half-life T1/2): 11.7 min
- drug concentration 1h ([4]; 1h): 802 ± 164 ng/mL
- drug concentration 4h ([4]; 4h): 398 ± 57 ng/mL
- number of marbles buried by mice (mice [5]; oral 1 mg/kg): significantly reduced
- immobility time of mice (mice [6]; oral 1 mg/kg): significantly reduced

The remaining lines, values ahead:

- EC50 (hTRPC5 [1]): 170 nM
Structure (SMILES): Cn1c(=O)n(CCCO)c(=O)c2c1nc(C1(F)CCC(c3ccccc3)CC1)n2Cc1ccc(Cl)cc1 (stereo not shown) [Example E54, 7-(4-chlorobenzyl)-8-(1-fluoro-4-phenylcyclohexyl)-1-(3-hydroxypropyl)-3-methyl-3,7-dihydro-1H-purine-2,6-dione]

- EC50 (hTRPC5 [1]): 700 nM
Structure (SMILES): Cn1c(=O)n(CCCO)c(=O)c2c1nc(C1(F)CCC(N3CCCC3)CC1)n2Cc1ccc(Cl)cc1 (stereo not shown) [Example E55, 7-(4-chlorobenzyl)-8-(1-fluoro-4-(pyrrolidin-1-yl)cyclohexyl)-1-(3-hydroxypropyl)-3-methyl-3,7-dihydro-1H-purine-2,6-dione]

From patent publication EP4663640A1 (Shanghai Institute of Materia Medica, Chinese Academy of …, priority 2023, dated 2024)
